Test results reported in patent publication EP0852148B1, “Products having anti-microbial activity” (SION MICROTEC LTD., priority 1997, dated 1998).
Counter-ions that a name gives are not always drawn. Like-named read-outs stand apart in the source and are kept apart here.

Legend:
[1] = test system: Pseudonomas aeruginosa (PA); test: Inhibition zone on bacterial lawn on agar plate, daily sequential transfer of sample; type: cell-based
Description: (§1) A matrix made of cotton gauze 75 mm wide, in accordance with the British Pharmacopoeia, was soaked in 0.5% chlorohexidine gluconate (CHXG) aqueous solution at 25°C and dried by forced hot air at 60°C in a continuous process. The antimicrobial activity of the product was tested on lawns of several bacteria: Staphylococcus aureus (SA), S. epidermidis (SE), Escherichia coli (EC) and Pseudonomas aeruginosa (PA), inoculated on agar plates, by placing a sample of about 2 cm^2 on the surface of the plate, and measurement of the inhibition zone after growth of the bacteria for 18 hours at 37°C. After 24 hours, the sample was passed sequentially to another inoculated agar plate and the inhibition zone measured. This daily transfer procedure continued up to the loss of growth-inhibiting activity.
(§2) The data set forth in the Tables herein is presented as follows: a = no inhibition b = partial growth inhibition under matrix c = total growth inhibition under matrix d = growth inhibition beyond the matrix, but at less than 1 mm E x-y = growth inhibition in mm; x = minimum distance; y = maximum distance.

[2] = test system: Staphylococcus aureus (SA); test: as above; type: cell-based; details: for Growth Inhibition SA: procedure of Example 1 (cotton gauze)
Description: as §1, §2

Escherichia coli (EC) = test: as above; type: cell-based
Description: as §1, with “The” for “A matrix made of cotton gauze 75 mm wide, in accordance with the British Pharmacopoeia, was soaked in 0.5% chlorohexidine gluconate (CHXG) aqueous solution at 25°C and dried by forced hot air at 60°C in a continuous process. The”
as §2

S. epidermidis (SE) = test: as above; type: cell-based
Description: as §1, with “The” for “A matrix made of cotton gauze 75 mm wide, in accordance with the British Pharmacopoeia, was soaked in 0.5% chlorohexidine gluconate (CHXG) aqueous solution at 25°C and dried by forced hot air at 60°C in a continuous process. The”
as §2

[3] = test system: Staphylococcus aureus (SA); test: as above; type: cell-based
[4] = test system: human immunodeficiency virus type I; details: aqueous solution, in 15 seconds; cited from earlier work
[5] = in vivo; cited from earlier work
[6] = test system: Staphylococcus aureus (SA); test: Inhibition zone on bacterial lawn on agar plate, daily sequential transfer of sample; type: cell-based; details: procedure of Example 1 (cotton gauze)
Description: as §1, with “activity. The data set forth in the Tables herein is presented as follows: a = no inhibition b = partial growth inhibition under matrix c = total growth inhibition under matrix d = growth inhibition beyond the matrix, but at less than 1 mm E x-y = growth inhibition in mm; x = minimum distance; y = maximum distance.” for “activity.”

[7] = Matrix Cellular triacetate, CHXH 0.1% or CHXG 1.0%
[8] = Matrix Nylon, CHXH 0.1% or CHXG 1.0%
[9] = Matrix Polyethylene, CHXH 0.1% or CHXG 1.0%
[10] = non-woven matrix (polyethylene, viscose and cotton), CHXG Concentration 2 %
[11] = non-woven matrix (polyethylene, viscose and cotton), CHXG Concentration 5 %
[12] = Matrix Polypropylene, CHXH 0.1% or CHXG 1.0%
[13] = Matrix Nylon, CHXH 0.1% or CHXG 1.0%, hydrochloride
[14] = Matrix Polyethylene, CHXH 0.1% or CHXG 1.0%, hydrochloride
[15] = Matrix Polypropylene, CHXH 0.1% or CHXG 1.0%, hydrochloride

## N=C(NCCCCCCNC(=N)NC(=N)Nc1ccc(Cl)cc1)NC(=N)Nc1ccc(Cl)cc1 [CHXG, chlorohexidine gluconate]
[1]; [7]
  Microorganism Growth Inhibition PA: E 1 mm
[1]; [8]
  Microorganism Growth Inhibition PA: d (growth inhibition beyond the matrix, but at less than 1 mm)
[1]; [9]
  Microorganism Growth Inhibition PA: E 1 mm
[1]; [10]
  Microorganism Growth Inhibition PA: d (growth inhibition beyond the matrix, but at less than 1 mm)
[1]; [11]
  Microorganism Growth Inhibition PA: E 1-2 mm
[2]; Day 1
  Growth Inhibition SA: E 4-5 mm
[2]; Day 2
  Growth Inhibition SA: E 3-4 mm
[2]; Day 3
  Growth Inhibition SA: E 2-3 mm
[2]; Day 4
  Growth Inhibition SA: E 2-3 mm
Escherichia coli (EC); [7]
  Microorganism Growth Inhibition EC: E 3-4 mm
Escherichia coli (EC); [8]
  Microorganism Growth Inhibition EC: E 2-4 mm
Escherichia coli (EC); [9]
  Microorganism Growth Inhibition EC: E 2-3 mm
Escherichia coli (EC); [12]
  Microorganism Growth Inhibition EC: E 2-4 mm
Escherichia coli (EC); [10]
  Microorganism Growth Inhibition EC: E 2-3 mm
Escherichia coli (EC); [11]
  Microorganism Growth Inhibition EC: E 3-4 mm
S. epidermidis (SE); [7]
  Microorganism Growth Inhibition SE: E 4 mm
S. epidermidis (SE); [9]
  Microorganism Growth Inhibition SE: E 3 mm
S. epidermidis (SE); [12]
  Microorganism Growth Inhibition SE: E 2-3 mm
S. epidermidis (SE); [10]
  Microorganism Growth Inhibition SE: E 3-5 mm
S. epidermidis (SE); [11]
  Microorganism Growth Inhibition SE: E 4-5 mm
[3]; [7]
  Microorganism Growth Inhibition SA: E 4-5 mm
[3]; [8]
  Microorganism Growth Inhibition SA: E 3-5 mm
[3]; [9]
  Microorganism Growth Inhibition SA: E 3-5 mm
[3]; [12]
  Microorganism Growth Inhibition SA: E 2-5 mm
[3]; [10]
  Microorganism Growth Inhibition SA: E 5-7 mm
[3]; [11]
  Microorganism Growth Inhibition SA: E 4-5 mm

## N=C(NCCCCCCNC(=N)NC(=N)Nc1ccc(Cl)cc1)NC(=N)Nc1ccc(Cl)cc1 [CHXH, chlorohexidine hydrochloride]
[1]
  Microorganism Growth Inhibition PA: E 1-2 mm
[2]
  Microorganism Growth Inhibition SA: E 5-6 mm
Escherichia coli (EC)
  Microorganism Growth Inhibition EC: E 2-4 mm
Escherichia coli (EC); [13]
  Microorganism Growth Inhibition EC: E 2-3 mm
Escherichia coli (EC); [14]
  Microorganism Growth Inhibition EC: E 1-3 mm
Escherichia coli (EC); [15]
  Microorganism Growth Inhibition EC: E 1-3 mm
S. epidermidis (SE)
  Microorganism Growth Inhibition SE: E 3-4 mm
S. epidermidis (SE); [8]
  Microorganism Growth Inhibition SE: E 2-3 mm
S. epidermidis (SE); [14]
  Microorganism Growth Inhibition SE: E 2 mm
S. epidermidis (SE); [15]
  Microorganism Growth Inhibition SE: E 1-2 mm
[3]; [13]
  Microorganism Growth Inhibition SA: E 3-4 mm
[3]; [14]
  Microorganism Growth Inhibition SA: E 3-4 mm
[3]; [15]
  Microorganism Growth Inhibition SA: E 2-4 mm

## CCCCCCCCCCCCCCCC[n+]1ccccc1.[Cl-] [Example 844, Cetyl piridinium chloride]
[2]; Day 1
  Growth Inhibition SA: E 3-4 mm
[2]; Day 2
  Growth Inhibition SA: E 5-6 mm
[2]; Day 3
  Growth Inhibition SA: E 3-4 mm
[2]; Day 4
  Growth Inhibition SA: E 2-4 mm

## CCCCCCCCCCCCCCCC[N+](C)(C)Cc1ccccc1.[Cl-] [Example 861, Benzyl dimethyl hexocylammonium chloride]
[2]; Day 1
  Growth Inhibition SA: E 3-5 mm
[2]; Day 2
  Growth Inhibition SA: E 3-4 mm
[2]; Day 3
  Growth Inhibition SA: E 3-4 mm
[2]; Day 4
  Growth Inhibition SA: E 2-3 mm

## [H]/N=C(\N/C(=N/[H])NCCCCCCNC(=N)NC(=N)Nc1ccc(Cl)cc1)Nc1ccc(Cl)cc1 [chlorhexidine]
[4]
  inactivation of human immunodeficiency virus type I: 100%

## Clc1nc(Cl)nc(Cl)n1 [cyanuric chloric linking group, cyanuric chloride]
[5]
  LD50: 18 mg/kg

## Bacitracin [Example 846]
[6]; Day 1
  Growth Inhibition SA: E 4-6 mm
[6]; Day 2
  Growth Inhibition SA: E 1-3 mm

## Septabicdidecyl dimethyl ammonium bromide [Example 868]
[2]; Day 1
  Growth Inhibition SA: E 5-6 mm
[2]; Day 2
  Growth Inhibition SA: E 5-6 mm
[2]; Day 3
  Growth Inhibition SA: E 4-5 mm
[2]; Day 4
  Growth Inhibition SA: E 3-4 mm
